# Calls of active or inactive are those of the source.
# Key:
# [1] = target: T1, Ubiquitin-conjugating enzyme E2 N (Homo sapiens, UniProt P61088); type: functional;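 further: Dose-response confirmation in a TR-FRET assay detecting UBC13-driven polyubiquitin chain formation, inhibition measured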
# T1 sequence (P61088 whole entry): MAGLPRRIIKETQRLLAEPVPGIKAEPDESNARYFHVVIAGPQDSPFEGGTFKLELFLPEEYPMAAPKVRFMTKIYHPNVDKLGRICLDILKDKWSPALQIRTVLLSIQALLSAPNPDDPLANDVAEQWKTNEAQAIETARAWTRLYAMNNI
# [2] = C. albicans growth with fluconazole, confirmation, fluorescence, retest (AID 2467); type: functional, cell-based
# [3] = NIH-3T3 fibroblast cytotoxicity, dose response, cytotoxicity control, cell-based, fluorescence, Alamar Blue, secondary assay (AID 2327); type: functional;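 further: NIH-3T3 mouse fibroblasts cultured with fluconazole at 8 µg/mL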
# [4] = Luminescence Cell-Based Dose Confirmation HTS to Identify Activators of 5'UTR Stem-Loop Driven Alpha-Synuclein mRNA Translation in H4 Neuroglioblastoma Cells. [Related pubchem assays: 1829 (Project Summary), 1814 (Primary HTS)]; type: functional
# [5] = Luminescence Cell-Based Dose Response HTS to Identify Activators of Luciferase Translation or Activity in H4 […] Cells. [Related pubchem assays: 1829 (Project Summary), 1814 (Primary HTS)]; type: functional
# [6] = microbe, parasite or virus in culture; type: functional; settings: Mycobacterium tuberculosis
# H4 = assay: Luminescence Cell-Based Dose Response HTS to Identify Activators of 5'UTR Stem-Loop Driven Prion Protein mRNA Translation in H4 Neuroglioblastoma Cells. [Related pubchem assays: 1829 (Project Summary), 1814 (Primary HTS)]; type: functional; settings: Homo sapiens
# [7] = target: T2, Polyadenylate-binding protein 1 (Homo sapiens, UniProt P11940); assay: PABP1 MLLE–PAM2 binding inhibitor potency, dose response, biochemical, fluorescence polarization, FITC-PAM2 peptide (AID 602259); type: functional; settings: read-out: IC50_Mean
# T2 sequence (P11940 whole entry): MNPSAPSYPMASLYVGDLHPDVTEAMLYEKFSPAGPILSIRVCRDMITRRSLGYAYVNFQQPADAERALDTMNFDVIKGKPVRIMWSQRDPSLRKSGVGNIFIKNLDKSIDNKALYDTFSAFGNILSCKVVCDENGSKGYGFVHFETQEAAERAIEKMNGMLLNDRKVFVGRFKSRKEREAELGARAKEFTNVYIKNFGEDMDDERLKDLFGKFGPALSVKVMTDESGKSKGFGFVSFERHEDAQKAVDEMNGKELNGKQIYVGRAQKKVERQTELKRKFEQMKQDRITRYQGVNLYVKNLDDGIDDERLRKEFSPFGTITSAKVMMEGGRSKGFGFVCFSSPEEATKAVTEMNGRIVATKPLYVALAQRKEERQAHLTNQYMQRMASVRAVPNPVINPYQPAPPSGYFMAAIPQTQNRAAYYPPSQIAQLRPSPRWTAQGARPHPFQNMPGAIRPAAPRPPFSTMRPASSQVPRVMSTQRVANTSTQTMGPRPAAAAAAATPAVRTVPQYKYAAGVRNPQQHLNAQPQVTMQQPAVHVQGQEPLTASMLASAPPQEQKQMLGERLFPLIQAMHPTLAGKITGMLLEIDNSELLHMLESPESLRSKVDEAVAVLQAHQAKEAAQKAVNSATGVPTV
# [8] = target: T2, Polyadenylate-binding protein 1; assay: PABP1 MLLE–PAM2 interaction inhibitors, dose response, miRNA deadenylation inhibitor project, biochemical, fluorescence polarization, Cy5-PAM2 peptide, secondary (AID 602260); type: functional; settings: read-out: IC50_Mean
# Streptokinase A = target: T3, Streptokinase A (Streptococcus pyogenes serotype M1, UniProt P10520); assay: S. pyogenes streptokinase expression inhibitors, potency, dose response, plasminogen activation absorbance, OD405 (AID 1914); type: functional, Streptococcus pyogenes M1 GAS;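 further: secreted streptokinase activity via plasminogen activation per viability signal from cell pellet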
# T3 sequence (P10520 whole entry): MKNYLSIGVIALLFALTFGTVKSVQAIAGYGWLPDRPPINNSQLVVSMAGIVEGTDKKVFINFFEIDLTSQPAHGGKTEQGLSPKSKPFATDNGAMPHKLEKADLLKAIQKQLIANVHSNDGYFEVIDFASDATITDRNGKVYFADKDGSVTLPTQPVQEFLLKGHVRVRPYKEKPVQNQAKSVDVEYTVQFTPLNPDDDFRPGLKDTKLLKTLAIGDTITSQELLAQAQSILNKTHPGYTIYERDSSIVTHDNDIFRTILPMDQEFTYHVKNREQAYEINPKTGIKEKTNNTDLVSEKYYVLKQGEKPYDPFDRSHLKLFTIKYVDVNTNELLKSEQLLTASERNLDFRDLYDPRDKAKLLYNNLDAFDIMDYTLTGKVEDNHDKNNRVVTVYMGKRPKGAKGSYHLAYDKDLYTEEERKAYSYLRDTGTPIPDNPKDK
# [9] = tested on: Streptococcus sp. 'group A'; assay: growth inhibition of control SK(-) GAS strain, dose response, counter-screen for streptokinase expression inhibitor project, luminescence, kanamycin, BacTiterGlo, confirmation (AID 1900); type: functional, organism-based
# Streptococcus = assay: Group A Streptococcus viability loss, dose response, counter-screen for streptokinase expression inhibitor project, luminescence, BacTiterGlo (AID 1915); type: functional, organism-based;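 further: potency for reduction of bacterial viability or growth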
# [10] = Luminescence Cell-Based Dose Retest to Confirm Inhibitors of Cancer Stem Cells. [Related pubchem assays (depositor defined):AID2717, AID2721]; type: functional; settings: Homo sapiens
# Large T antigen = Large T antigen (Simian virus 40, UniProt P03070); type: functional, Betapolyomavirus macacae;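 further: Confirmatory-stage PubChem screen for compounds that inhibit SV40 T antigen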
# Chain of Large T antigen (P03070 whole entry): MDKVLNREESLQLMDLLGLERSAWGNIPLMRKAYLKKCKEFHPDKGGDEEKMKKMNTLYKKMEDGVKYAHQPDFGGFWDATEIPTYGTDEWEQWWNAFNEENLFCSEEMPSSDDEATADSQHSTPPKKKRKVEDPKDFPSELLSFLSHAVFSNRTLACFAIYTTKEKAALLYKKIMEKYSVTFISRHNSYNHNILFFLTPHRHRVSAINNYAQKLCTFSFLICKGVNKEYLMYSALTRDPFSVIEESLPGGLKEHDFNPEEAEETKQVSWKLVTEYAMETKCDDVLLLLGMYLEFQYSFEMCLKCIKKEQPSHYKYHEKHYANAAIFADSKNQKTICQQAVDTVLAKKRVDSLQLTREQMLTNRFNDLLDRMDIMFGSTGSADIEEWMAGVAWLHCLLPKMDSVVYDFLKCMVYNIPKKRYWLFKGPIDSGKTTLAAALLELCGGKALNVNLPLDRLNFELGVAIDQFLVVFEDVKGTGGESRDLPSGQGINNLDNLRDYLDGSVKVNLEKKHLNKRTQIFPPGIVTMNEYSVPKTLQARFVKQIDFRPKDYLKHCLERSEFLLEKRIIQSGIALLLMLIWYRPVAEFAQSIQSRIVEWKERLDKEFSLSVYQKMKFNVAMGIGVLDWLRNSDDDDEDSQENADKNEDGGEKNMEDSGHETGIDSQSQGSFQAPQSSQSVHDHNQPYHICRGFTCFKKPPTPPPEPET
# [11] = target: T4, Heat shock factor protein 1 (Mus musculus, UniProt P38532); assay: HSF1 potentiators in luciferase reporter cells, confirmation, cell-based, NIH3T3, luminescence, dose retest (AID 435004); type: functional;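 further: stress induced by proteasome inhibitor MG132 added 30 min after compound; luciferase reporter driven by HSF1 response element in NIH3T3 cells; actives raise luminescence as potentiators of the MG132 stress response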
# T4 sequence (P38532 whole entry): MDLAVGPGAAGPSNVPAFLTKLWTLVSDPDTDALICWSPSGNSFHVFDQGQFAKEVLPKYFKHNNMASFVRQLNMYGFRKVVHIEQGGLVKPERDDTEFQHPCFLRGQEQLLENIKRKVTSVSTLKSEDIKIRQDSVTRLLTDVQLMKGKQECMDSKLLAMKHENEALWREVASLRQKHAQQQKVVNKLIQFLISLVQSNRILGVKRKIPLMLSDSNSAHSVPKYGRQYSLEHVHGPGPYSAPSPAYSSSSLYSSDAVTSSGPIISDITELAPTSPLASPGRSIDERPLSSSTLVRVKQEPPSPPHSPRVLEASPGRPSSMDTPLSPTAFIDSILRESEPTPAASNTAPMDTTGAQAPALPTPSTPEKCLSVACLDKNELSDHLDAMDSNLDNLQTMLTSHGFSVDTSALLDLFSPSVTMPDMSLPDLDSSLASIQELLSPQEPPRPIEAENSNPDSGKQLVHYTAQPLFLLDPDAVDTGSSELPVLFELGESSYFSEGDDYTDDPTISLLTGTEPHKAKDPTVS
# [12] = target: T5, Rac GTPase-activating protein 1 (Homo sapiens, UniProt Q9H0H5); assay: MgcRacGAP GTPase-activating activity inhibitors, confirmation, biochemical, ADP Hunter fluorescence, primary and confirmatory (AID 624330); type: functional
# T5 sequence (Q9H0H5 whole entry): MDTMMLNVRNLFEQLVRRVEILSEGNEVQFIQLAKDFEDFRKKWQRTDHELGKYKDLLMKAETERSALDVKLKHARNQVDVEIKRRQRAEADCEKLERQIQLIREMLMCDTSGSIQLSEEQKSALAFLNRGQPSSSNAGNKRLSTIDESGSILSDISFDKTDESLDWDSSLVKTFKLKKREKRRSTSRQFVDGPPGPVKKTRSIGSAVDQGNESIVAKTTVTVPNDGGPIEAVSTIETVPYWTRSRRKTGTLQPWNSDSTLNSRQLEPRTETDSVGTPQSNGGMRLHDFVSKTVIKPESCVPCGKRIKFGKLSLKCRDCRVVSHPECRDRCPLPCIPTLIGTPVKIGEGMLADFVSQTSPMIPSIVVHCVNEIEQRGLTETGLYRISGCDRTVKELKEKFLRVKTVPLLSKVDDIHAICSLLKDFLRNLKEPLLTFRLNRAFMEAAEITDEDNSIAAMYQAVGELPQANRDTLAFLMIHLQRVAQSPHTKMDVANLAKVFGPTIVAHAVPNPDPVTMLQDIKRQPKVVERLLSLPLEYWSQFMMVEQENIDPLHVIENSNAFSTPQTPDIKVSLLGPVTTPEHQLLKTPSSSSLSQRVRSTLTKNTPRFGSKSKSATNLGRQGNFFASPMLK
# [13] = Luminescence Cell-Based Dose Response HTS to Identify Inhibitors of 5'UTR Stem-Loop Driven Prion Protein mRNA Translation in H4 Neuroglioblastoma Cells. [Related pubchem assays: 1827 (Project Summary), 1813 (Primary HTS)]; type: functional
# [14] = inhibitors of firefly luciferase expression or activity, dose response, H4 neuroglioma cells, luminescence (AID 1990); type: functional, cell-based
# [15] = inhibitors of SNCA 5'UTR-driven reporter translation, confirmation, H4 neuroglioma cells, luminescence (AID 1988); type: functional, cell-based
# Cytochrome P450 2D6 = Cytochrome P450 2D6 (Homo sapiens, UniProt P10635);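 further: CYP2D6 member of a cytochrome P450 panel assay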
# Chain of Cytochrome P450 2D6 (P10635 whole entry): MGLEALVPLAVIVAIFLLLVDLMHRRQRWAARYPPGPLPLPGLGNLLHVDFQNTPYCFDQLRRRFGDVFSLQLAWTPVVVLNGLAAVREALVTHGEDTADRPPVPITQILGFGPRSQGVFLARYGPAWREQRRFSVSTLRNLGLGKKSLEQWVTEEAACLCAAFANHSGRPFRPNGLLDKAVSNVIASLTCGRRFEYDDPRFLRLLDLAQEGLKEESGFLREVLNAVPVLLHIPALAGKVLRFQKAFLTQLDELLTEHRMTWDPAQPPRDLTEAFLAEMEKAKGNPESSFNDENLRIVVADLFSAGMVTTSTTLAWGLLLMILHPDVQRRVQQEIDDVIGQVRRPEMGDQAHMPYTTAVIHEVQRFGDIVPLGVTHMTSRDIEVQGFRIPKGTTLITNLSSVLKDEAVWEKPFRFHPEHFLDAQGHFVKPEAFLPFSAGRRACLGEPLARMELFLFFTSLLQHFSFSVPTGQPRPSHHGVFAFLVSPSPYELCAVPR
# cells = type: functional
# [16] = Shn3 3'UTR reporter inhibitors, dose response, cell-based, Clone20 osteoblasts, firefly luciferase, cherry-picked (AID 624132); type: functional;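 further: firefly luciferase luminescence from reporter carrying the Shn3 3'UTR in osteoblasts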
# [17] = control 3'UTR Renilla luciferase suppression, dose response, counter-screen for Shn3 inhibitor project, cell-based, Clone20-Shn3RL, cherry-picked (AID 624133); type: functional
# [18] = P. falciparum Dd2 growth inhibitors, dose response, SYBR Green, cherry-picked samples (AID 1159567); type: functional, cell-based
compound,measurement,setting,value
CC(=O)c1cn(S(=O)(=O)c2ccccc2)c2ccccc12,IC50,[1],> 20 µM (inactive)
COc1ccc(C)cc1N=C(S)NNC(=O)c1c(Br)cnn1C,EC50,[2],1.45 µM (active)
same,EC50,[3],> 150 µM (inactive)
COc1cc(/C=C2/SC(Nc3ccc(O)cc3)=NC2=O)cc(OC)c1O,IC50,[1],> 20 µM (inactive)
CC1(C)SC(=S)N(NC(=O)Nc2cccc3ccccc23)C1N(O)C(=O)Nc1ccccc1 (stereo not given),EC50,[4],> 120 µM (not active)
same,EC50,[5],> 60 µM (not active)
same,CC50,[6],36.3 µM (active)
same,EC50,H4,> 120 µM (not active)
CC(C)NS(=O)(=O)c1ccc(NC(=S)NC(=O)c2cccc([N+](=O)[O-])c2)cc1,IC50,[7],> 66 µM (inactive)
same,IC50,[8],> 66 µM (inactive)
CCOC(=O)c1[nH]c2ccc(F)cc2c1NC(=O)c1ccccc1C(=O)O,EC50,[2],> 38 µM (not active)
same,EC50,[3],> 150 µM (inconclusive)
same,EC50,Streptokinase A,> 150 µM (not active)
same,EC50,[9],> 150 µM (not active)
same,EC50,Streptococcus,> 150 µM (not active)
Cc1ccn2c(NC3CCCCC3)c(-c3cccc(-c4cccc(Cl)c4)c3)nc2c1,AC50,[10],2.85 µM (active)
same,CC50,[6],> 40 µM (active)
CN1C(=O)C2C(c3ccc(N(C)C)cc3)=NN(Cc3ccccc3)C2C1=O (stereo not given),IC50,Large T antigen,19 µM (active)
same,EC50,[11],40.3 µM (active)
same,IC50,[12],43 µM (active)
CCCOC(c1ccccc1)(c1ccc(C(F)(F)F)cc1)C(Oc1nc(C)cc(C)n1)C(=O)O (stereo not given),EC50,[2],1.91 µM (active)
same,EC50,[3],> 160 µM (inactive)
same,EC50,[13],11.4 µM (active)
same,EC50,[14],12.4 µM (active)
same,EC50,[15],8.08 µM (active)
COc1ccc(Cl)cc1C(=O)O/N=C(\N)c1ccccn1,CC50,[6],> 40 µM (active)
Cc1c(NC(=O)C(C)N2CC(C)OC(C)C2)c(=O)n(-c2ccccc2)n1C (stereo not given),EC50,[11],> 260 µM (inactive)
CCCCn1c(SCC(=O)Nc2cccc(OC)c2)nc2ccc(N3CCOCC3)cc2c1=O,EC50,[2],> 38 µM (not active)
same,EC50,[3],141 µM (active)
NC(=O)CN(c1ccccc1)C1SC(=O)N(Cc2ccccc2)C1=O (stereo not given),IC50,[7],> 66 µM (inactive)
same,IC50,[8],> 66 µM (inactive)
COc1ccc2c3n(nc2c1)CCN=C3c1cc(Cl)c(N)c(Cl)c1,CC50,[6],35.5 µM (active)
O=C(NC(=S)Nc1cccnc1)c1cc2ccccc2o1,IC50,[7],> 66 µM (inactive)
same,IC50,[8],> 66 µM (inactive)
CCC(=O)N1CCN(c2ccc(NC(=S)NC(=O)c3cccc([N+](=O)[O-])c3)cc2)CC1,IC50,[7],> 66 µM (inactive)
same,IC50,[8],> 66 µM (inactive)
O=C(O)c1ccccc1SC1CC(=O)N(c2cccc3ccccc23)C1=O (stereo not given),IC50,[7],> 66 µM (inactive)
same,IC50,[8],> 66 µM (inactive)
Cc1cc(C(=O)NNc2ccc(Cl)cc2)no1,EC50,[2],0.819 µM (active)
same,EC50,[3],2.59 µM (active)
same,AC50,[10],1.35 µM (active)
COCCSc1nnc(NC(=O)C2CC(=O)N(c3ccc(C)cc3)C2)s1 (stereo not given),EC50,[2],> 38 µM (not active)
same,EC50,[3],> 160 µM (inactive)
CCCCOc1ccc(CNn2c(C)nc3ccccc3c2=O)cc1,IC50,[1],> 20 µM (inactive)
same,AC50,Cytochrome P450 2D6,7.94 µM (inconclusive)
O=C(CSc1nccn(-c2ccc(Br)cc2)c1=O)NC1CCCC1,IC50,[7],> 66 µM (inactive)
same,IC50,[8],> 66 µM (inactive)
Cc1ccccc1-n1nnc2c(=O)oc3ccccc3c21,IC50,cells,1.13 µM (active)
same,EC50,[11],> 260 µM (inactive)
COc1ccc(S(=O)(=O)N[C@@H](Cc2ccccc2)C(=O)N2CC[C@@]3(O)CCCC[C@H]3C2)cc1,EC50,[11],> 260 µM (inactive)
O[C@@H](c1cc(C(F)(F)F)nc2c(C(F)(F)F)cccc12)[C@H]1CCCCN1,IC50,[1],> 20 µM (inactive)
same,CC50,[6],13.5 µM (active)
O=C(Nc1cccc(Cl)c1)C1CCCN(S(=O)(=O)c2ccc(F)cc2)C1 (stereo not given),EC50,[11],> 260 µM (inactive)
CC(=O)NCCc1nc2ccccc2n1CCOc1cccc(C)c1,EC50,[11],> 260 µM (inactive)
Cc1c(C(=O)N(Cc2cccc(Br)c2)C2CCS(=O)(=O)C2)oc2ccccc12 (stereo not given),AC50,[16],35.9 µM (active)
same,AC50,[17],> 70 µM (inactive)
CCCCN1C(=N)N([C@@H](CCC)CN2CCC[C@H]2CN2C(N)=NC[C@H]2CC(C)C)C[C@H]1Cc1ccccc1,IC50,[1],> 20 µM (inactive)
COc1cc(/C=N/NC(=O)CC2C(=O)NN=C2C)ccc1O (stereo not given),IC50,Large T antigen,11.5 µM (active)
same,IC50,[12],53.7 µM (active)
CN(C)CC#Cc1ccc([C@H]2[C@H](CO)N3CCCCN(C(=O)CN(C)C)C[C@@H]23)cc1,AC50,[18],9.36 µM (active)
